In publication PMC11845477, “Exploring the principles behind antibiotics with limited resistance” (Nature Communications, 2025):

What was measured:
[1] = test system: A. baumannii ATCC 17978 (SEN) and A. baumannii ATCC BAA-1605 (MDR); assay: Adaptive laboratory evolution (ALE), relative MIC of evolved lines; assay type: cell-based, Acinetobacter baumannii; conditions: for Relative MIC (log10): AB-SEN (Acinetobacter baumannii ATCC 17978)
Procedure, shortened: (§1)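 Ten parallel populations per antibiotic–ancestor pair were evolved in MHB at 37 °C, starting near 50% growth-inhibiting drug. Every 72 h they were passaged into 0.5–2.5× increasing concentrations, keeping the highest-drug well with OD600 > 0.2.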

[2] = test system: E. coli ATCC 25922 (SEN) and E. coli NCTC13846 (MDR); assay: as above; assay type: cell-based, Escherichia coli
Procedure, shortened: as §1

With `CNC(C)C1CCC(N)C(OC2C(N)CC(N)C(OC3OCC(C)(O)C(NC)C3O)C2O)O1` (stereo not drawn) [Gentamicin] the “Relative MIC (log10)” value ([1]; evolved line 2 adapted to the named antibiotic) was 2.709, the “Relative MIC (log10)” value ([1]; evolved line 4 adapted to the named antibiotic) was 2.709 and the “Relative MIC (log10)” value ([1]; evolved line 5 adapted to the named antibiotic) was 2.709. For the same compound, the “Relative MIC (log10)” value ([1]; evolved line 7 adapted to the named antibiotic) was 2.709, the “Relative MIC (log10)” value ([1]; evolved line 10 adapted to the named antibiotic) was 2.709 and the “Relative MIC” value ([1]; AB-SEN, Acinetobacter baumannii ATCC 17978, evolved line 2 versus ancestor) was 512. The “Relative MIC” value ([1]; AB-SEN, Acinetobacter baumannii ATCC 17978, evolved line 3 versus ancestor) was 256, the “Relative MIC” value ([1]; AB-SEN, Acinetobacter baumannii ATCC 17978, evolved line 4 versus ancestor) was 512 and the “Relative MIC” value ([1]; AB-SEN, Acinetobacter baumannii ATCC 17978, evolved line 5 versus ancestor) was 512. The “Relative MIC” value ([1]; AB-SEN, Acinetobacter baumannii ATCC 17978, evolved line 6 versus ancestor) was 256, the “Relative MIC” value ([1]; AB-SEN, Acinetobacter baumannii ATCC 17978, evolved line 7 versus ancestor) was 512 and the “Relative MIC” value ([1]; AB-SEN, Acinetobacter baumannii ATCC 17978, evolved line 8 versus ancestor) was 128. The “Relative MIC” value ([1]; AB-SEN, Acinetobacter baumannii ATCC 17978, evolved line 9 versus ancestor) was 128, the “Relative MIC” value ([1]; AB-SEN, Acinetobacter baumannii ATCC 17978, evolved line 10 versus ancestor) was 512 and the “Relative MIC” value ([1]; Acinetobacter baumannii ATCC 17978 (AB-SEN), evolved line 2) was 512. The “Relative MIC” value ([1]; Acinetobacter baumannii ATCC 17978 (AB-SEN), evolved line 3) was 256, the “Relative MIC” value ([1]; Acinetobacter baumannii ATCC 17978 (AB-SEN), evolved line 4) was 512 and the “Relative MIC” value ([1]; Acinetobacter baumannii ATCC 17978 (AB-SEN), evolved line 5) was 512. The “Relative MIC” value ([1]; Acinetobacter baumannii ATCC 17978 (AB-SEN), evolved line 6) was 256, the “Relative MIC” value ([1]; Acinetobacter baumannii ATCC 17978 (AB-SEN), evolved line 7) was 512 and the “Relative MIC” value ([1]; Acinetobacter baumannii ATCC 17978 (AB-SEN), evolved line 8) was 128. The “Relative MIC” value ([1]; Acinetobacter baumannii ATCC 17978 (AB-SEN), evolved line 9) was 128, the “Relative MIC” value ([1]; Acinetobacter baumannii ATCC 17978 (AB-SEN), evolved line 10) was 512 and the “Relative MIC (log10)” value ([2]; EC-MDR (Escherichia coli NCTC 13846), evolved line 3 adapted to the named antibiotic) was 1.806. The “Relative MIC (log10)” value ([2]; EC-MDR (Escherichia coli NCTC 13846), evolved line 5 adapted to the named antibiotic) was 1.806, the “Relative MIC (log10)” value ([2]; EC-MDR (Escherichia coli NCTC 13846), evolved line 6 adapted to the named antibiotic) was 1.806 and the “Relative MIC (log10)” value ([2]; EC-MDR (Escherichia coli NCTC 13846), evolved line 7 adapted to the named antibiotic) was 1.505. The “Relative MIC (log10)” value ([2]; EC-MDR (Escherichia coli NCTC 13846), evolved line 9 adapted to the named antibiotic) was 1.806, the “Relative MIC” value ([2]; EC-MDR, Escherichia coli NCTC 13846, evolved line 1 versus ancestor) was 64 and the “Relative MIC” value ([2]; EC-MDR, Escherichia coli NCTC 13846, evolved line 2 versus ancestor) was 32. For the same compound, the “Relative MIC” value ([2]; EC-MDR, Escherichia coli NCTC 13846, evolved line 3 versus ancestor) was 64, the “Relative MIC” value ([2]; EC-MDR, Escherichia coli NCTC 13846, evolved line 4 versus ancestor) was 64 and the “Relative MIC” value ([2]; EC-MDR, Escherichia coli NCTC 13846, evolved line 5 versus ancestor) was 64. For the same compound, the “Relative MIC” value ([2]; EC-MDR, Escherichia coli NCTC 13846, evolved line 6 versus ancestor) was 64, the “Relative MIC” value ([2]; EC-MDR, Escherichia coli NCTC 13846, evolved line 7 versus ancestor) was 32 and the “Relative MIC” value ([2]; EC-MDR, Escherichia coli NCTC 13846, evolved line 8 versus ancestor) was 64. For the same compound, the “Relative MIC” value ([2]; EC-MDR, Escherichia coli NCTC 13846, evolved line 9 versus ancestor) was 64, the “Relative MIC (log10)” value ([2]; EC-SEN (Escherichia coli ATCC 25922), evolved line 2 adapted to the named antibiotic) was 1.505 and the “Relative MIC (log10)” value ([2]; EC-SEN (Escherichia coli ATCC 25922), evolved line 4 adapted to the named antibiotic) was 2.107. The “Relative MIC (log10)” value ([2]; EC-SEN (Escherichia coli ATCC 25922), evolved line 5 adapted to the named antibiotic) was 1.806, the “Relative MIC (log10)” value ([2]; EC-SEN (Escherichia coli ATCC 25922), evolved line 6 adapted to the named antibiotic) was 2.107 and the “Relative MIC (log10)” value ([2]; EC-SEN (Escherichia coli ATCC 25922), evolved line 9 adapted to the named antibiotic) was 1.806. The “Relative MIC” value ([2]; EC-SEN, Escherichia coli ATCC 25922, evolved line 2 versus ancestor) was 32, the “Relative MIC” value ([2]; EC-SEN, Escherichia coli ATCC 25922, evolved line 3 versus ancestor) was 32 and the “Relative MIC” value ([2]; EC-SEN, Escherichia coli ATCC 25922, evolved line 4 versus ancestor) was 128. For the same compound, the “Relative MIC” value ([2]; EC-SEN, Escherichia coli ATCC 25922, evolved line 5 versus ancestor) was 64, the “Relative MIC” value ([2]; EC-SEN, Escherichia coli ATCC 25922, evolved line 6 versus ancestor) was 128 and the “Relative MIC” value ([2]; EC-SEN, Escherichia coli ATCC 25922, evolved line 7 versus ancestor) was 32. For the same compound, the “Relative MIC” value ([2]; EC-SEN, Escherichia coli ATCC 25922, evolved line 8 versus ancestor) was 64, the “Relative MIC” value ([2]; EC-SEN, Escherichia coli ATCC 25922, evolved line 9 versus ancestor) was 64 and the “Relative MIC” value ([2]; EC-SEN, Escherichia coli ATCC 25922, evolved line 10 versus ancestor) was 16. For the same compound, the “Relative MIC” value ([2]; Escherichia coli ATCC 25922 (EC-SEN), evolved line 2) was 32, the “Relative MIC” value ([2]; Escherichia coli ATCC 25922 (EC-SEN), evolved line 3) was 32 and the “Relative MIC” value ([2]; Escherichia coli ATCC 25922 (EC-SEN), evolved line 4) was 128. For the same compound, the “Relative MIC” value ([2]; Escherichia coli ATCC 25922 (EC-SEN), evolved line 5) was 64, the “Relative MIC” value ([2]; Escherichia coli ATCC 25922 (EC-SEN), evolved line 6) was 128 and the “Relative MIC” value ([2]; Escherichia coli ATCC 25922 (EC-SEN), evolved line 7) was 32. For the same compound, the “Relative MIC” value ([2]; Escherichia coli ATCC 25922 (EC-SEN), evolved line 8) was 64, the “Relative MIC” value ([2]; Escherichia coli ATCC 25922 (EC-SEN), evolved line 9) was 64 and the “Relative MIC” value ([2]; Escherichia coli ATCC 25922 (EC-SEN), evolved line 10) was 16. For the same compound, the “Relative MIC” value ([2]; Escherichia coli NCTC 13846 (EC-MDR), evolved line 1) was 64, the “Relative MIC” value ([2]; Escherichia coli NCTC 13846 (EC-MDR), evolved line 2) was 32 and the “Relative MIC” value ([2]; Escherichia coli NCTC 13846 (EC-MDR), evolved line 3) was 64. The “Relative MIC” value ([2]; Escherichia coli NCTC 13846 (EC-MDR), evolved line 4) was 64, the “Relative MIC” value ([2]; Escherichia coli NCTC 13846 (EC-MDR), evolved line 5) was 64 and the “Relative MIC” value ([2]; Escherichia coli NCTC 13846 (EC-MDR), evolved line 6) was 64. For the same compound, the “Relative MIC” value ([2]; Escherichia coli NCTC 13846 (EC-MDR), evolved line 7) was 32, the “Relative MIC” value ([2]; Escherichia coli NCTC 13846 (EC-MDR), evolved line 8) was 64 and the “Relative MIC” value ([2]; Escherichia coli NCTC 13846 (EC-MDR), evolved line 9) was 64.
